{"source": "patent US9174973B2", "about": "“Crystalline forms of azilsartan and preparation and uses thereof” (SUNSHINE LAKE PHARMA CO., LTD., priority 2011, dated 2015)", "test": "solubility test of crystalline forms in 0.1M HCl (Chinese Pharmacopoeia 2010)", "format": "physicochemical", "details": "300 mg sample in 6 mL 0.1M HCl, 25° C.±2° C., 30 minutes, observed with eyes", "experimental": "The solubility of crystalline forms A, B, C and D was measured in accordance with the solubility test described in “Chinese Pharmacopoeia 2010”, Topic and Requirement 15. A crystalline form of azilsartan was grinded into powder. The powder (300 mg) was added to 6 ml of 0.1M HCl as the solvent at 25° C.±2° C. […] The total test time was 30 minutes. The solid was deemed as dissolved when no solid was detected in the mixture by human eyes. The solubility data of crystalline forms A, B, C and D of azilsartan are as shown below."}
{"smiles": "CCOc1nc2cccc(C(=O)O)c2n1Cc1ccc(-c2ccccc2-c2noc(=O)[nH]2)cc1", "note": "[Form D]", "values": [{"measurement": "Result (solubility)", "result": "dissolved"}]}
